Measurements from PubChem BioAssay (NCI).
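Growth conditions: 96-well plates. Treatment: test compound, 48 hours, 5 concentrations. Analysis: linear interpolation between bracketing concentrations; unreached endpoints set to highest concentration. GI50 marks 50% less growth. TGI is the concentration that stops growth completely.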

How the values were obtained:
Experiment in all cases: NCI anticancer screen, dose series, 48 h
786-0 renal = system: 786-0 renal
A498 renal = system: A498 renal
A549 NSCLC = system: A549 NSCLC
ACHN renal = system: ACHN renal
BT-549 breast = system: BT-549 breast
CAKI-1 renal = system: CAKI-1 renal
CCRF-CEM leukemia = system: CCRF-CEM leukemia
COLO 205 colon = system: COLO 205 colon
DU-145 prostate = system: DU-145 prostate
EKVX NSCLC = system: EKVX NSCLC
HCC-2998 colon = system: HCC-2998 colon
HCT-15 colon = system: HCT-15 colon
HOP-92 NSCLC = system: HOP-92 NSCLC
HS 578T breast = system: HS 578T breast
IGROV1 ovarian = system: IGROV1 ovarian
KM12 colon = system: KM12 colon
LOX IMVI melanoma = system: LOX IMVI melanoma
M14 melanoma = system: M14 melanoma
MALME-3M melanoma = system: MALME-3M melanoma
MCF7 breast = system: MCF7 breast
MDA-MB-231 breast = system: MDA-MB-231 breast
MDA-MB-435 = system: MDA-MB-435
MDA-N = system: MDA-N
NCI-H226 lung = system: NCI-H226 lung
NCI-H23 lung = system: NCI-H23 lung
NCI-H460 lung = system: NCI-H460 lung
NCI-H522 lung = system: NCI-H522 lung
OVCAR-3 ovarian = system: OVCAR-3 ovarian
OVCAR-4 ovarian = system: OVCAR-4 ovarian
OVCAR-5 ovarian = system: OVCAR-5 ovarian
OVCAR-8 ovarian = system: OVCAR-8 ovarian
PC-3 prostate = system: PC-3 prostate
SF-268 CNS = system: SF-268 CNS
SF-295 CNS = system: SF-295 CNS
SF-539 CNS = system: SF-539 CNS
SK-MEL-2 melanoma = system: SK-MEL-2 melanoma
SK-MEL-28 melanoma = system: SK-MEL-28 melanoma
SK-MEL-5 melanoma = system: SK-MEL-5 melanoma
SK-OV-3 ovarian = system: SK-OV-3 ovarian
SN12C renal = system: SN12C renal
SNB-19 CNS = system: SNB-19 CNS
SR leukemia = system: SR leukemia
SW-620 colon = system: SW-620 colon
TK-10 renal = system: TK-10 renal
UACC-257 melanoma = system: UACC-257 melanoma
UACC-62 melanoma = system: UACC-62 melanoma
UO-31 renal = system: UO-31 renal
HCT-116 colon = system: HCT-116 colon
HL-60(TB) leukemia = system: HL-60(TB) leukemia
HOP-62 NSCLC = system: HOP-62 NSCLC
HT29 colon = system: HT29 colon
MOLT-4 leukemia = system: MOLT-4 leukemia
NCI/ADR-RES ovarian = system: NCI/ADR-RES ovarian
SNB-75 CNS = system: SNB-75 CNS
U251 CNS = system: U251 CNS
RXF 393 renal = system: RXF 393 renal

Compound: Cc1ccc2c(=O)cc(-c3cccc(Cl)c3)[nH]c2n1
- TGI (786-0 renal): > 100 µM
- TGI (A498 renal): > 100 µM
- TGI (A549 NSCLC): > 100 µM
- TGI (ACHN renal): > 100 µM
- TGI (BT-549 breast): > 100 µM
- TGI (CAKI-1 renal): > 100 µM
- TGI (CCRF-CEM leukemia): > 100 µM
- TGI (COLO 205 colon): > 35.8 µM
- TGI (DU-145 prostate): > 100 µM
- TGI (EKVX NSCLC): > 100 µM
- TGI (HCC-2998 colon): 41.5 µM
- TGI (HCT-15 colon): > 35.8 µM
- TGI (HOP-92 NSCLC): > 100 µM
- TGI (HS 578T breast): > 100 µM
- TGI (IGROV1 ovarian): > 100 µM
- TGI (KM12 colon): > 37.5 µM
- TGI (LOX IMVI melanoma): > 100 µM
- TGI (M14 melanoma): > 100 µM
- TGI (MALME-3M melanoma): > 100 µM
- TGI (MCF7 breast): > 36 µM
- TGI (MDA-MB-231 breast): 3.63 µM
- TGI (MDA-MB-435): 0.0463 µM
- TGI (MDA-N): > 100 µM
- TGI (NCI-H226 lung): 25.9 µM
- TGI (NCI-H23 lung): > 31.6 µM
- TGI (NCI-H460 lung): > 100 µM
- TGI (NCI-H522 lung): 1.61 µM
- TGI (OVCAR-3 ovarian): 0.0274 µM
- TGI (OVCAR-4 ovarian): > 100 µM
- TGI (OVCAR-5 ovarian): > 100 µM
- TGI (OVCAR-8 ovarian): > 100 µM
- TGI (PC-3 prostate): > 100 µM
- TGI (SF-268 CNS): > 100 µM
- TGI (SF-295 CNS): 1.36 µM
- TGI (SF-539 CNS): 0.0443 µM
- TGI (SK-MEL-2 melanoma): > 100 µM
- TGI (SK-MEL-28 melanoma): > 100 µM
- TGI (SK-MEL-5 melanoma): 4.7 µM
- TGI (SK-OV-3 ovarian): > 100 µM
- TGI (SN12C renal): > 100 µM
- TGI (SNB-19 CNS): > 100 µM
- TGI (SR leukemia): > 100 µM
- TGI (SW-620 colon): > 100 µM
- TGI (TK-10 renal): > 100 µM
- TGI (UACC-257 melanoma): > 100 µM
- TGI (UACC-62 melanoma): > 100 µM
- TGI (UO-31 renal): > 100 µM

Compound: CC1(C)CC2=C(SC3C=CC=CC3N2)C(=O)C1C(=O)C(N)=O (stereo not drawn)
- TGI (786-0 renal): > 100 µM
- TGI (A549 NSCLC): > 100 µM
- TGI (ACHN renal): > 100 µM
- TGI (BT-549 breast): > 100 µM
- TGI (CAKI-1 renal): > 100 µM
- TGI (CCRF-CEM leukemia): > 100 µM
- TGI (COLO 205 colon): > 100 µM
- TGI (DU-145 prostate): > 100 µM
- TGI (EKVX NSCLC): > 100 µM
- TGI (HCC-2998 colon): > 100 µM
- TGI (HCT-116 colon): > 100 µM
- TGI (HCT-15 colon): > 100 µM
- TGI (HL-60(TB) leukemia): > 100 µM
- TGI (HOP-62 NSCLC): > 100 µM
- TGI (HOP-92 NSCLC): > 100 µM
- TGI (HS 578T breast): > 100 µM
- TGI (HT29 colon): > 100 µM
- TGI (IGROV1 ovarian): > 100 µM
- TGI (KM12 colon): > 100 µM
- TGI (LOX IMVI melanoma): > 100 µM
- TGI (M14 melanoma): > 100 µM
- TGI (MCF7 breast): > 100 µM
- TGI (MDA-MB-231 breast): > 100 µM
- TGI (MDA-MB-435): > 100 µM
- TGI (MDA-N): > 100 µM
- TGI (MOLT-4 leukemia): > 100 µM
- TGI (NCI-H226 lung): > 100 µM
- TGI (NCI-H23 lung): > 100 µM
- TGI (NCI-H460 lung): > 100 µM
- TGI (NCI-H522 lung): > 100 µM
- TGI (NCI/ADR-RES ovarian): > 100 µM
- TGI (OVCAR-3 ovarian): > 100 µM
- TGI (OVCAR-4 ovarian): > 100 µM
- TGI (OVCAR-5 ovarian): > 100 µM
- TGI (OVCAR-8 ovarian): > 100 µM
- TGI (PC-3 prostate): > 100 µM
- TGI (SF-268 CNS): > 100 µM
- TGI (SF-295 CNS): > 100 µM
- TGI (SF-539 CNS): > 100 µM
- TGI (SK-MEL-2 melanoma): > 100 µM
- TGI (SK-MEL-28 melanoma): > 100 µM
- TGI (SK-MEL-5 melanoma): > 100 µM
- TGI (SK-OV-3 ovarian): > 100 µM
- TGI (SN12C renal): > 100 µM
- TGI (SNB-19 CNS): > 100 µM
- TGI (SNB-75 CNS): > 100 µM
- TGI (SW-620 colon): > 100 µM
- TGI (TK-10 renal): > 100 µM
- TGI (U251 CNS): > 100 µM
- TGI (UACC-257 melanoma): > 100 µM
- TGI (UACC-62 melanoma): > 100 µM
- TGI (UO-31 renal): > 100 µM

Compound: Cc1cc(C)c2c(=O)cc(-c3cccc(Cl)c3)[nH]c2n1
- TGI (786-0 renal): > 55.1 µM
- TGI (A498 renal): > 100 µM
- TGI (A549 NSCLC): > 100 µM
- TGI (ACHN renal): > 100 µM
- TGI (BT-549 breast): 85.3 µM
- GI50 (CAKI-1 renal): 0.204 µM
- TGI (CAKI-1 renal): > 100 µM
- TGI (CCRF-CEM leukemia): > 100 µM
- TGI (COLO 205 colon): > 67.1 µM
- TGI (DU-145 prostate): > 100 µM
- TGI (EKVX NSCLC): > 100 µM
- TGI (HCC-2998 colon): > 100 µM
- TGI (HCT-116 colon): > 23.1 µM
- TGI (HCT-15 colon): > 100 µM
- TGI (HL-60(TB) leukemia): 2.15 µM
- TGI (HOP-62 NSCLC): > 100 µM
- TGI (HOP-92 NSCLC): > 100 µM
- TGI (HS 578T breast): > 100 µM
- TGI (IGROV1 ovarian): > 100 µM
- TGI (KM12 colon): > 100 µM
- TGI (LOX IMVI melanoma): > 34.2 µM
- TGI (M14 melanoma): > 100 µM
- TGI (MALME-3M melanoma): > 100 µM
- TGI (MCF7 breast): > 100 µM
- TGI (MDA-MB-231 breast): 8.09 µM
- TGI (MDA-N): 0.0529 µM
- TGI (MOLT-4 leukemia): > 38.8 µM
- TGI (NCI-H226 lung): > 100 µM
- TGI (NCI-H23 lung): > 100 µM
- TGI (NCI-H460 lung): > 100 µM
- TGI (NCI-H522 lung): 0.742 µM
- TGI (OVCAR-4 ovarian): > 100 µM
- TGI (OVCAR-8 ovarian): > 100 µM
- TGI (PC-3 prostate): 0.0967 µM
- TGI (RXF 393 renal): > 100 µM
- TGI (SF-268 CNS): > 100 µM
- TGI (SF-295 CNS): 0.33 µM
- TGI (SF-539 CNS): 0.464 µM
- TGI (SK-MEL-28 melanoma): > 100 µM
- TGI (SK-OV-3 ovarian): > 100 µM
- TGI (SN12C renal): > 38.3 µM
- TGI (SNB-19 CNS): > 100 µM
- TGI (SNB-75 CNS): > 100 µM
- TGI (SR leukemia): > 100 µM
- TGI (SW-620 colon): > 100 µM
- TGI (TK-10 renal): > 100 µM
- TGI (UACC-257 melanoma): > 94.1 µM
- TGI (UACC-62 melanoma): > 100 µM
- TGI (UO-31 renal): > 100 µM
